Entries after “also recorded” stand apart in the source; their conditions may differ.

The subject of data set [1] is nausea and vomiting of pregnancy symptoms. In words: Randomized controlled efficacy trial of Diclectin vs placebo in pregnant women: plasma levels vs PUQE score. Format: in vivo, human. As to conditions: pregnant women treated with Diclectin for 14 days; FIG. 1. On the procedure:
A randomized controlled efficacy trial of Diclectin® vs. placebo in pregnant women was carried out as follows, with the results shown in FIG. 1.
To assess the plasma levels of Doxylamine and PLP and the severity of nausea and vomiting of pregnancy symptoms in pregnant women treated with Diclectin®.
The demographic and medical characteristics of the subjects are as described in Koren et al., Am J Obstet Gynecol 2010; 203(6):571.e1-7.
The study design is as described in Koren et al., 2010, supra. Briefly, a randomized, double-blind, multicenter placebo controlled trial studying pregnant women suffering from nausea and vomiting of pregnancy, analyzed by intention to treat. Women received Diclectin (n=131) or placebo (n=125) for 14 days. Nausea and vomiting of pregnancy symptoms were evaluated daily using the pregnancy unique quantification of emesis scale (PUQE-24, Ebrahimi et al., J Obstet Gynaecol Can. 2009 September; 31(9):803-7).

Data set [2] can be described thus: Randomized controlled bioavailability study, three-way cross over, plasma PLP after treatments A, B, C. As to conditions: for speed of increase / time of appearance of PLP in the plasma: given together with Doxylamine and Pyridoxine, R5P 40 mg, AUC 0-2 h. As for the experimental part: The results depicted in FIGS. 2 and 3 were obtained from randomized controlled bioavailability studies in healthy women, which were carried out as follows.
To characterize the pharmacokinetic profile of Pyridoxal-5′-Phosphate (PLP) and to determine whether Riboflavin-5-phosphate (R5P), PLP or PYL in an immediate release formulation can be used to positively alter the kinetics of PLP compared to the current Diclectin® formulation (the current Diclectin® formulation is a delayed release formulation containing 10 mg Doxylamine succinate and 10 mg Pyridoxine-HCl).
Healthy female (n=12) participants between 18 and 45 years of age with a body mass index between 19 and 30 kg/m^2 were administered the treatments described below under empty stomach (fasted) conditions. Blood sampling was conducted extensively from 1 hour pre-administration until 24 hours post-administration. After a wash-out period of 21 days, dose administration and blood sampling was re-conducted as stated above. Doxylamine, Pyridoxine and Pyridoxine metabolites were measured using liquid chromatography-tandem mass spectrometry, as previously described (Nulman and Koren, Can J Clin Pharmacol Vol 16(3):e400-e406, 2009).
Three Way Cross Over Design.
Diclectin®: delayed release formulation containing 10 mg Doxylamine succinate and 10 mg Pyridoxine-HCl (PA-DR).
Immediate release: an oral solution of 20 mg Doxylamine succinate and 20 mg Pyridoxine-HCl (PA-IR).
Treatment group A: One (1) Diclectin® Tablet (current delayed release formulation of 10 mg Doxylamine and 10 mg Pyridoxine-HCl) plus an oral solution of 10 mg Doxylamine and 10 mg Pyridoxal HCl (immediate release) (PYL);
Treatment group B: One (1) Diclectin® Tablet (current delayed release formulation of 10 mg Doxylamine and 10 mg Pyridoxine-HCl) plus an oral solution of 10 mg Doxylamine and 10 mg Pyridoxal-5′-Phosphate (immediate release) (PLP);
Treatment group C: One (1) Diclectin® Tablet (current delayed release formulation of 10 mg Doxylamine and 10 mg Pyridoxine-HCl) plus an oral solution of 10 mg Doxylamine and 10 mg Pyridoxine HCl and 40 mg Riboflavin-5-phosphate (R5P) (immediate release).
Bioavailability; Tmax, Cmax and AUC0-t between each treatment. Doxylamine, and Pyridoxine and its metabolites were measured using liquid chromatography-tandem mass spectrometry, as previously described (Nulman and Koren, Can J Clin Pharmacol Vol 16 (3):e400-e406, 2009).

Data set [3] in a line: Another study with different doses of R5P (5, 10 or 20 mg), plasma PLP levels vs controls. Format: in vivo, human. On the procedure:
In another study, different doses of R5P were tested: 5, 10 or 20 mg of R5P (i.e. equivalent to the formulations administered to Treatment group C above, with the exception that 5, 10 or 20 mg of R5P was used rather than 40 mg R5P; 8 healthy women for each dose), and the PLP levels were compared to those measured in control healthy women not administered with R5P (24 subjects, equivalent to Treatment group A above).

As to `CN(C)CCOC(C)(c1ccccc1)c1ccccn1` (stereo not drawn) [Doxylamine, reference compound], in data set [1], the “plasma concentration vs severity of NVP (PUQE score)” value is “correlates with a reduction in the severity of NVP”.

On to `Cc1ncc(COP(=O)(O)O)c(C=O)c1O` [PLP, Pyridoxal 5-phosphate], for which the “plasma concentration vs severity of NVP (PUQE score)” value in data set [1] is “correlates with a reduction in the severity of NVP”.

Regarding `Cc1ncc(CO)c(C=O)c1O` [PYL, Pyridoxal], the “speed of increase / time of appearance of PLP in the plasma” value in data set [2] was “did not result in such improvement”.

For the compound `Cc1cc2nc3c(=O)[nH]c(=O)nc-3n(C[C@H](O)[C@H](O)[C@H](O)COP(=O)(O)O)c2cc1C` [R5P, riboflavin-5-phosphate], the “inter-subject variations in PLP levels” value in data set [2] (administration of R5P) was “less inter-subject variations”. Moreover, the “time to reach steady-state PLP levels” value in data set [2] (administration of R5P) is listed as “decreased time to reach steady-state PLP levels”. In addition, the “speed of increase / time of appearance of PLP in the plasma” value in data set [2] was “faster increase in the plasma level of PLP”; in data set [2] (listed as FMN), “faster time of appearance in the plasma”. For the same compound, the “PLP concentration (AUC) 0-12 h compared with Diclectin (PA-DR)” value in data set [2] (healthy women, fasted, one-way ANOVA, FIG. 2) is given as “did not increase PLP levels significantly; also recorded: does not significantly affect PLP levels”. In addition, the “effect on PLP levels relative to controls” value in data set [3] (5 mg R5P, 8 healthy women, controls without R5P) is “no significant effect”; in data set [3] (10 mg R5P, 8 healthy women, controls without R5P) it was “no significant effect”. The “effect on pharmacokinetics of PLP relative to controls” value in data set [3] (20 mg R5P, 8 healthy women, controls without R5P) is recorded as “some improvement in the pharmacokinetics of PLP”. In addition, the “effect with 20 mg R5P compared with 40 mg R5P” value in data set [3] (20 mg vs 40 mg R5P) is recorded as “lower”.
